Results on four cell lines are retold here after the supplement of paper PMC10307832.

What all share (assay): relative viability (nuclei count vs DMSO), 5 days (fraction); higher = more cells survive
Compound in assay [1]: NC1(c2ccc(-c3nc4ccn5c(=O)[nH]nc5c4cc3-c3ccccc3)cc2)CCC1 [MK-2206] + CC1(C)CCC(c2ccc(Cl)cc2)=C(CN2CCN(c3ccc(C(=O)NS(=O)(=O)c4ccc(N[C@H](CCN5CCOCC5)CSc5ccccc5)c(S(=O)(=O)C(F)(F)F)c4)cc3)CC2)C1 [Navitoclax] (partner 0.5 µM)
The essentials: (§1)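 The day after seeding in 1536-well plates, lung cancer cell lines were treated by pin tool with a single drug, or with a fixed anchor-drug dose together with five library-drug doses (not always all listed) in √10 steps. After 5 days, a combined fix-and-stain solution (final 0.05% Triton X-100, 1% formaldehyde, 1 ug/ml Hoechst) was added. Nuclei counted on 4× images gave relative viability as treated counts over vehicle counts, reported as the median of duplicate plates.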

Compound in assay [2]: NC1(c2ccc(-c3nc4ccn5c(=O)[nH]nc5c4cc3-c3ccccc3)cc2)CCC1 [MK-2206] + N=C(N)NC(=N)NCCc1ccccc1 [Phenformin] (partner 250 µM)
The essentials:
as §1

Compound in assay [3]: NC1(c2ccc(-c3nc4ccn5c(=O)[nH]nc5c4cc3-c3ccccc3)cc2)CCC1 [MK-2206] + Cc1nc(Nc2ncc(C(=O)Nc3c(C)cccc3Cl)s2)cc(N2CCN(CCO)CC2)n1 [Dasatinib] (partner 0.075 µM)
An outline of the steps:
as §1

Compound in assay [4]: CS(=O)(=O)N1CCN(Cc2cc3nc(-c4cccc5[nH]ncc45)nc(N4CCOCC4)c3s2)CC1 [Pictilisib] + Cc1nc(NC(=O)N2CCC[C@H]2C(N)=O)sc1-c1ccnc(C(C)(C)C(F)(F)F)c1 [Alpelisib] (partner 2 µM)
An outline of the steps:
as §1

Compound in assay [5]: NC1(c2ccc(-c3nc4ccn5c(=O)[nH]nc5c4cc3-c3ccccc3)cc2)CCC1 [MK-2206] + Nc1nc2[nH]cc(CCc3ccc(C(=O)N[C@@H](CCC(=O)O)C(=O)O)cc3)c2c(=O)[nH]1 [Pemetrexed] (partner 0.2 µM)
An outline of the steps:
as §1

Turning to BEN, the relative viability in assay [1] (first compound 0.01 µM) stood at 0.069; in assay [1] (first compound 0.03162 µM) it was 0.0836; in assay [1] (first compound 0.3162 µM), 0.0745; in assay [1] (first compound 1 µM), 0.0466; in assay [2] (first compound 0.01 µM) it was 0.258; in assay [2] (first compound 0.03162 µM) it was 0.267. For the same cell line, the relative viability in assay [2] (first compound 0.3162 µM) was found to be 0.272; in assay [2] (first compound 1 µM), 0.295; in assay [3] (first compound 0.01 µM), 0.265; in assay [3] (first compound 0.03162 µM) it was 0.332; in assay [3] (first compound 0.3162 µM), 0.321; in assay [3] (first compound 1 µM) it was 0.362. The relative viability came out at 0.813 in assay [4] (first compound 0.02 µM); 1.08 in assay [4] (first compound 0.06325 µM); 1.03 in assay [4] (first compound 0.6325 µM); 0.704 in assay [4] (first compound 2 µM); 0.736 in assay [5] (first compound 0.01 µM); 0.767 in assay [5] (first compound 0.03162 µM). For the same cell line, the values for the relative viability in assay [5] (first compound 0.3162 µM) and in assay [5] (first compound 1 µM) were 0.679 and 0.697, respectively.
Take NCI-H3122: the relative viability was 1.02 in assay [1] (first compound 0.01 µM); 1.03 in assay [1] (first compound 0.03162 µM); 1.01 in assay [1] (first compound 0.3162 µM); 0.958 in assay [1] (first compound 1 µM); 0.367 in assay [2] (first compound 0.01 µM); 0.414 in assay [2] (first compound 0.03162 µM). Moreover, the relative viability in assay [2] (first compound 0.3162 µM) worked out at 0.395; in assay [2] (first compound 1 µM) it was 0.353; in assay [3] (first compound 0.01 µM) it was 0.801; in assay [3] (first compound 0.03162 µM) it was 0.789; in assay [3] (first compound 0.3162 µM), 0.84; in assay [3] (first compound 1 µM), 0.118. Also, the relative viability in assay [4] (first compound 0.02 µM) was found to be 0.749; in assay [4] (first compound 0.06325 µM) it was 0.723; in assay [4] (first compound 0.6325 µM), 0.658; in assay [4] (first compound 2 µM), 0.469; in assay [5] (first compound 0.01 µM) it was 0.202; in assay [5] (first compound 0.03162 µM) it was 0.197. The relative viability in assay [5] (first compound 0.3162 µM) turned out to be 0.203; in assay [5] (first compound 1 µM), 0.193.
In the case of LCLC-97TM1, the relative viability in assay [1] (first compound 0.01 µM) came to 0.522; in assay [1] (first compound 0.03162 µM) it was 0.499; in assay [1] (first compound 0.3162 µM), 0.404; in assay [1] (first compound 1 µM) it was 0.361; in assay [2] (first compound 0.01 µM), 0.431; in assay [2] (first compound 0.03162 µM), 0.48. Moreover, the relative viability in assay [2] (first compound 0.3162 µM) was 0.315; in assay [2] (first compound 1 µM), 0.384; in assay [3] (first compound 0.01 µM) it was 0.847; in assay [3] (first compound 0.03162 µM) it was 0.858; in assay [3] (first compound 0.3162 µM), 0.893; in assay [3] (first compound 1 µM) it was 0.898. The relative viability in assay [4] (first compound 0.02 µM) came to 0.268; in assay [4] (first compound 0.06325 µM) it was 0.353; in assay [4] (first compound 0.6325 µM), 0.265; in assay [4] (first compound 2 µM), 0.176; in assay [5] (first compound 0.01 µM) it was 0.186; in assay [5] (first compound 0.03162 µM), 0.138. Moreover, the figures for the relative viability in assay [5] (first compound 0.3162 µM) and in assay [5] (first compound 1 µM) were 0.146 and 0.189, respectively.
Consider NCI-H2228, for which the relative viability in assay [1] (first compound 0.01 µM) was 1.12; in assay [1] (first compound 0.03162 µM), 0.724; in assay [1] (first compound 0.3162 µM), 0.678; in assay [1] (first compound 1 µM) it was 0.585; in assay [2] (first compound 0.01 µM), 0.332; in assay [2] (first compound 0.03162 µM) it was 0.326. For the same cell line, the relative viability in assay [2] (first compound 0.3162 µM) is 0.214; in assay [2] (first compound 1 µM) it was 0.219; in assay [3] (first compound 0.01 µM) it was 0.533; in assay [3] (first compound 0.03162 µM), 0.485; in assay [3] (first compound 0.3162 µM) it was 0.355; in assay [3] (first compound 1 µM), 0.266. Moreover, the relative viability in assay [4] (first compound 0.02 µM) was determined as 0.674; in assay [4] (first compound 0.06325 µM), 0.665; in assay [4] (first compound 0.6325 µM) it was 0.507; in assay [4] (first compound 2 µM), 0.35; in assay [5] (first compound 0.01 µM) it was 0.333; in assay [5] (first compound 0.03162 µM), 0.307. Moreover, the relative viability is 0.336 in assay [5] (first compound 0.3162 µM) and 0.318 in assay [5] (first compound 1 µM).
